Values of other authors in patent US11491200B2, “Herbal compositions and methods for the prevention and treatment of nail infections” (Produits Naturels Mondias Inc., priority 2016, dated 2022).

Tested on: onychomycosis
Conditions: mild-to-moderate onychomycosis; versus 3% for placebo

Question: With `C=C1CCN([C@H](C)[C@](O)(Cn2cncn2)c2ccc(F)cc2F)CC1` [Jublia] as the compound, how does the efficacy read?
Answer: 17%
